Consider five compounds from paper PMC7447632, “Highly functionalized β-lactams and 2-ketopiperazines as TRPM8 antagonists with antiallodynic activity” (Scientific Reports, 2020).

Structures can show the parent of a compound that is named as a salt. Where two headings read alike, the source gives them in different places.

The subject of one test is TRPM8. The following applies: cited from earlier work.
Test [1] relates to A549 (lung carcinoma, NSCLC). The test can be described thus: SRB cytotoxicity assay, A549. The class given is cell-based. The following applies: for TGI A549: total growth inhibition; for CC50 / GI50: Homo sapiens; for CC50: read-out: LC50 A549. The method, then:
(§1) Human tumor cell lines used in this study were purchased from the ATCC. A-549 (CCL-185), lung carcinoma; HT-29 (HTB-38), colorectal adenocarcinoma; MDA-MB-231 (HTB-26), breast adenocarcinoma; PSN1, pancreas adenocarcinoma.
(§2) All cell lines were maintained in DMEM (Dulbecco’s Modified Eagle's Medium) culture medium supplemented with 10% FBS (Fetal Bovine Serum), 100 Units/mL penicillin/streptomycin at 37 °C, 5% CO2 and 95% humidity.
(§3) Triplicate cultures were incubated for 72 h in the presence or absence of test compounds in dose–response curves (10 concentrations, typically ranging from 10 to 0.0026 µg/mL). A colorimetric assay using sulforhodamine B (SRB) was adapted for quantitative measurement of cell growth and cytotoxicity. A more detailed information on this assay is provides in the supplementary information. GI50 is the compound concentration that produces 50% inhibition on cell growth as compared to control cells.
(§4) In vitro bioassays for the detection of antitumor activity
(§5) The aim of this assay is to evaluate the in vitro cytostatic (ability to delay or arrest tumor cell growth) or cytotoxic (ability to kill tumor cells) activity of the samples […]
(§6) Name Nº ATCC Species Tissue Characteristics
(§7) A549 CCL-185 human lung lung carcinoma (NSCLC)
(§8) HT29 HTB-38 human colon colorectal adenocarcinoma
(§9) MDA-MB-231 HTB-26 human breast breast adenocarcinoma
(§10) PSN1 CRM-CRL-3211 human pancreas pancreas adenocarcinoma […]
(§11) A colorimetric assay, using Sulforhodamine B (SRB) reaction has been adapted to provide a quantitative measurement of cell growth and viability (following the technique described by Skehan et al. J. Natl. Cancer Inst. 1990, 82, 1107-1112 […]
(§12) This form of assay employs 96-well cell culture microplates following the standards of the American National Standards Institute and the Society for Laboratory […]
(§13) used in this study were obtained from the American Type Culture Collection (ATCC) and derive from different types of human cancer.
(§14) A549, HT29, MDA-MB-231 and PSN1 cells were maintained in Dulbecco’s
(§15) Modified Eagle Medium (DMEM) supplemented with 10% Fetal Bovine Serum (FBS), 2mM L-glutamine, 100 U/mL penicillin, and 100 U/mL streptomycin at 37 °C, 5% CO2 and 98% humidity. For the experiments, cells were harvested from subconfluent cultures using trypsinization and resuspended in fresh medium before counting and […]
(§16) A549, HT29, MDA-MB-231 and PSN1 cells were seeded in 96 well microtiter plates, at 5000 cells per well in aliquots of 150 µL, and allowed to attach to the plate surface for 18 hours (overnight) in drug free medium. After that, one control (untreated) plate of each cell line was fixed (as described below) and used for time zero reference value. Culture plates were then treated with test compounds (50 µL aliquots of 4X stock […]
(§17) solutions in complete culture medium plus 4% DMSO) using ten 2/5 serial dilutions (concentrations ranging from 10 to 0.003 µg/mL) and triplicate cultures (1% final concentration in DMSO). After 72 hours treatment, the antitumor effect was measured by using the SRB methodology: Briefly, cells were washed twice with PBS, fixed for 15 min in 1% glutaraldehyde solution at room temperature, rinsed twice in PBS, and stained in 0.4% SRB solution for 30 min at room temperature. Cells were then rinsed several times with 1% acetic acid solution and air-dried at room temperature. SRB was then extracted in 10 mM trizma base solution and the absorbance measured in an automated spectrophotometric plate reader at 490 nm.
(§18) Effects on cell growth and survival were estimated by applying the NCI algorithm (Boyd MR and Paull KD. Drug Dev. Res. 1995, 34, 91-109, DOI:10.1002/ddr.430340203). The values obtained in triplicate cultures were fitted by nonlinear regression to a four-parameters logistic curve by nonlinear regression analysis. . Using the absorbance measurements [time zero, (Tz), control growth, (C), and test growth in the presence of drug at the ten concentration levels (Ti)], the […]
On the technique in general: Sulforhodamine B stains cellular protein and so reports cell mass.

Test [2] has as its system PSN1 (pancreas adenocarcinoma). The test can be described thus: SRB cytotoxicity assay, PSN1. The following applies: for TGI PSN1: total growth inhibition; for CC50 / GI50: Homo sapiens; for CC50: read-out: LC50 PSN1. The class given is cell-based. On the procedure:
as §1, §2, §3, §4, §5, §6, §7, §8, §9, §10, §11, §12, §13, §14, §15, §16, §17, §18

Test [3] relates to MDA-MB-231 (breast adenocarcinoma). Kind of test: SRB cytotoxicity assay, MDA-MB-231. The following applies: for TGI MDA-MB-231: total growth inhibition; for CC50 / GI50: Homo sapiens; for CC50: read-out: LC50 MDA-MB-231. In kind it is cell-based. On the procedure: as §1, §2, §3, §4, §5, §6, §7, §8, §9, §10, §11, §12, §13, §14, §15, §16, §17, §18
Test [4] has as its system HT29 (colorectal adenocarcinoma). Kind of test: SRB cytotoxicity assay, HT29. The following applies: for TGI HT29: total growth inhibition; for CC50 / GI50: Homo sapiens; for CC50: read-out: LC50 HT29. In kind it is cell-based. On the procedure: as §1, §2, §3, §4, §5, §6, §7, §8, §9, §10, §11, §12, §13, §14, §15, §16, §17, §18
The target of another test is T1, rat TRPM8 channel (Rattus norvegicus, UniProt Q8R455).
T1 construct: expressed in transfected cells; host or cells: HEK293 (stably transfected)
Kind of test: Ca2+ microfluorometry, menthol-induced Ca2+ influx in HEK293 cells expressing rat TRPM8. The class given is cell-based. The following applies: 100 µM menthol, HEK-rTRPM8; for % Blockade 5 µM: 5 µM compound; for % Blockade 50 µM: 50 µM compound. On the procedure: The ability to inhibit menthol-induced Ca^2+ intracellular influx into the cytosol on HEK293 cells heterologously expressing the rat TRPM8 channel was measured and compared to that of AMTB, a well-known TRPM8 antagonist. Representative recordings of fluorescence obtained in microfluorometry experiments for selected compounds are in Supplementary Fig. S3.
(§19) Human embryonic kidney cell line (HEK) stably transfected with rTRPM8 or h-TRPV1 were used as previously described. Briefly, cells were seeded in 96-well plates at a cell density of 30,000 cells 2 days before treatment. Buffer used was HBBS (in mM): 138 NaCl, 5.33 KCl, 1.26 CaCl2, 0.5 MgCl-6H2O, 0.4 MgSO4-7H2O, 4 NaHCO3 0.44 KH2PO4, 0.3 Na2HPO4, pH 7.4. The day of treatment the medium was replaced with 100 µL of the dye loading solution Fluo-4 NW supplemented with probenecid 2.5 mM. After incubation, plates were transferred to a fluorescence plate reader (Polastar BMG). In the experimental protocol, the baseline fluorescence was recorded ([…]) for 3 cycles. After, vehicle, compound at different concentrations and the corresponding antagonist, 10 µM AMTB for TRPM8 or 10 µM Ruthenium Red for TRPV1 were added to the well. Fluorescence intensity was recorded during 7 cycles more. Finally, the agonist 100 µM menthol for TRPM8 or 1 µM capsaicin for TRPV1 was added and fluorescence intensity was recorded during 10 cycles more.
The degree of inhibition of TRPM8 channel gating was calculated by comparison to calcium increase signal elicited by test substances and menthol at 100 µM. Decrease of menthol signal was expressed as percentage of inhibition (%). All data are expressed as mean ± standard deviation (SD). Each condition was assessed by triplicate (n = 3) in 3 independent experiments (N = 3). Z-factor was calculated in each assay using the following equation: […]. In all the experiments Z-factor was ≥ 0.5. To calculate IC50, normalized responses (%) versus log [µM] were adjusted to a non-linear fit with variable slope, a four-parameter dose–response curve following curve Y = 100/(1 + 10^((Log IC50-X)*HillSlope)) where […].

The target in the next test is T2, hTRPV1 channels (Homo sapiens, UniProt Q8NER1).
T2 construct: expressed in transfected cells; host or cells: HEK (stably transfected)
Kind of test: Ca2+ microfluorometry in HEK cells expressing hTRPV1 (capsaicin). The class given is cell-based. The following applies: 1 µM capsaicin; for TRPV1 Blockade (%) 5 µM: 5 µM compound; for TRPV1 Blockade (%) 50 µM: 50 µM compound. The method, then: β-Lactam and 2-ketopiperazine derivatives were also assayed for their activity in cell expressing hTRPV1 channels. No significant antagonist activity was measured for any derivatives within both chemotypes (Supplementary Tables S1, S2, and Fig. S3), indicating their selectivity for TRPM8 channels.
as §19
Table S1. Activity at hTRPV1 of β–lactams derived from phenylalaninol conjugates
Compd. Isomer Isomer TRPV1 Blockade (%)
Table S2. Activity at hTRPV1 of 2-ketopiperazines derived from phenylalaninol

Where [5] appears, read: MDA-MB-231, 72 h, SRB, unit inferred.
Where [6] appears, read: HT-29, 72 h, SRB, unit inferred.

T2 sequence (Q8NER1 whole entry): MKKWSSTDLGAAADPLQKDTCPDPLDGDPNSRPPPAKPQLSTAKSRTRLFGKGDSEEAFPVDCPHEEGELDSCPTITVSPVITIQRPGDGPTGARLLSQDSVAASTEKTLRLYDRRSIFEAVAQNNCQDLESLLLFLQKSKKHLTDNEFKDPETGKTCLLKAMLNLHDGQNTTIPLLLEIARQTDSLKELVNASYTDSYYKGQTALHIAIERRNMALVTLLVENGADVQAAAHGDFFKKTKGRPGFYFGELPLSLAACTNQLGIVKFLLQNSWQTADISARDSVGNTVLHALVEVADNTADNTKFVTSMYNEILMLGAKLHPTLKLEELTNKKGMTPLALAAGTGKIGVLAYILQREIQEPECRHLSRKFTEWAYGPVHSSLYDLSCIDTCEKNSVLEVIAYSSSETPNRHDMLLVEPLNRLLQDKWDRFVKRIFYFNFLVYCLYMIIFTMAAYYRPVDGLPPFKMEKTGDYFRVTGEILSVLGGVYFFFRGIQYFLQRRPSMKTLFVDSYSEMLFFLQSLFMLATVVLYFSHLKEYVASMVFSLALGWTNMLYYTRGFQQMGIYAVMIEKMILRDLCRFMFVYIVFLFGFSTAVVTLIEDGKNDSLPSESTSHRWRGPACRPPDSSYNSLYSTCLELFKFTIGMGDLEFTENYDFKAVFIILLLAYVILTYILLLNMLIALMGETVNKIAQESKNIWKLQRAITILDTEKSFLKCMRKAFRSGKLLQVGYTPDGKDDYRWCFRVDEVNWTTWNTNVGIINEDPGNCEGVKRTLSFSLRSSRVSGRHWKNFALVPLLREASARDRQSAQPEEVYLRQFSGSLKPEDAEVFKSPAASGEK
T1 sequence (Q8R455 whole entry): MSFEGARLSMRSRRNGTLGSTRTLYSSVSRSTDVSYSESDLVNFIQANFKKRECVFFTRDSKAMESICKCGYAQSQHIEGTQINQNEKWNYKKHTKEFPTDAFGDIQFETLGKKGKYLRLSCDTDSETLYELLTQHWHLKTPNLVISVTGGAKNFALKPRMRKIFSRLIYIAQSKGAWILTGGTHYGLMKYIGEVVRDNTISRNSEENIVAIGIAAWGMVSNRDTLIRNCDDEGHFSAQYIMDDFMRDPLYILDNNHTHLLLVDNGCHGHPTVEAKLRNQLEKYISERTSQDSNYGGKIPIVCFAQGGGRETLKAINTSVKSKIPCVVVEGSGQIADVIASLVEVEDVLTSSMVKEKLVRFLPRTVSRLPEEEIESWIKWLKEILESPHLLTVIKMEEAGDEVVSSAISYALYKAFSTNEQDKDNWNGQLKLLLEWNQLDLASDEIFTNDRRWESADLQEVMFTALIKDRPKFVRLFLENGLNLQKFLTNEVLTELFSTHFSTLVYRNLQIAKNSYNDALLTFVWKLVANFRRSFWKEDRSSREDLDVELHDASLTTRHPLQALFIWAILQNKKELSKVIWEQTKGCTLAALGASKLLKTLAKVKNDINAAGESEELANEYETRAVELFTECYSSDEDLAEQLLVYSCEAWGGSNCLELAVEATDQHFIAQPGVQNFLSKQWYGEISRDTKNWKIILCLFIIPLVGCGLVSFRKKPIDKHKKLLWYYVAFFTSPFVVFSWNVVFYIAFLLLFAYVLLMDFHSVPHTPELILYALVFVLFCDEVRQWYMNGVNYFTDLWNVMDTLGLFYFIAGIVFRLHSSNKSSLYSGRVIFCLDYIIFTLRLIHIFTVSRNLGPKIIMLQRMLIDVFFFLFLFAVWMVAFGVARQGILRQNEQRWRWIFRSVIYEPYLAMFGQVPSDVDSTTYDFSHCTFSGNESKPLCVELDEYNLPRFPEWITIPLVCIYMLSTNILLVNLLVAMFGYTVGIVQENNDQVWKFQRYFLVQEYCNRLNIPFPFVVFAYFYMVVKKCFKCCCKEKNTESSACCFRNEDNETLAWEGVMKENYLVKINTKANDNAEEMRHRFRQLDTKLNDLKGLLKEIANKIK

A word on the EC50: it is the concentration needed to bring the measured effect to its halfway point. Turning to `O=C1NC(c2cccc([N+](=O)[O-])c2)=CCN1c1ccccc1O` [Icilin], the EC50 in the test on TRPM8 (Figure 1, literature value) is 5 nM.

One may read the GI50 as the concentration that inhibits growth by half. Low values mean greater sensitivity of the cells, high ones lower sensitivity of the cells. In test [1] (72 h, SRB, unit inferred), `COc1cccc2c1C(=O)c1c(O)c3c(c(O)c1C2=O)C[C@@](O)(C(=O)CO)C[C@@H]3O[C@H]1C[C@H](N)[C@H](O)[C@H](C)O1` [Doxorubicin.HCl, reference compound] displayed a TGI A549 of 640 nM. Besides, the CC50 in test [1] (A549, 72 h) is 2930 nM; in test [2] (PSN1, 72 h), 1620 nM; in test [3] (MDA-MB-231, 72 h) it was 980 nM; in test [4] (HT-29, 72 h), more than 17200 nM. Further, the GI50 in test [1] (A549, 72 h, SRB) was 240 nM; in test [2] (PSN1, 72 h, SRB) it was 170 nM; in test [3] (MDA-MB-231, 72 h, SRB), 170 nM; in test [4] (HT-29, 72 h, SRB), 190 nM. Also, the TGI PSN1 in test [2] (72 h, SRB, unit inferred) was 480 nM. In test [3] (72 h, SRB, unit inferred), the TGI MDA-MB-231 was determined as 410 nM. Further, in test [4] (72 h, SRB, unit inferred), the TGI HT29 turned out to be 640 nM.

The IC50 is the concentration at which inhibition is half-maximal. In the case of `C[C@@H]1C(=O)N(C(Cc2ccccc2)C(=O)OCc2ccccc2)C[C@@H](Cc2ccccc2)N1C(=O)OCc1ccccc1` (some centres unmarked) [Compound 30ab], in test [1] (72 h, SRB, unit inferred), the TGI A549 was more than 17300 nM. Besides, the GI50 was 12700 nM in test [1] (A549, 72 h, SRB); 8300 nM in test [2] (PSN1, 72 h, SRB); more than 17300 nM in test [3] (MDA-MB-231, 72 h, SRB); more than 17300 nM in test [4] (HT-29, 72 h, SRB). The CC50 in test [1] (A549, 72 h, SRB, unit inferred) is more than 17300 nM; in test [2] (PSN1, 72 h, SRB, unit inferred) it was more than 17300 nM; in test [3] (setting [5]), more than 17300 nM; in test [4] (setting [6]) it was more than 17300 nM. Moreover, the TGI PSN1 in test [2] (72 h, SRB, unit inferred) is more than 17300 nM. Also, the “% Blockade 5 µM” value at rat TRPM8 channel turned out to be 101.7 ± 5.3%. The “% Blockade 50 µM” value at rat TRPM8 channel is on record as 101.2 ± 11.4%. In addition, the IC50 against rat TRPM8 channel (Ca2+ microfluorometry) is 160 nM. The compound further had a TGI MDA-MB-231 in test [3] (72 h, SRB, unit inferred) of more than 17300 nM. This compound came in with a TGI HT29 in test [4] (72 h, SRB, unit inferred) of more than 17300 nM. The “TRPV1 Blockade (%) 5 µM” value at hTRPV1 channels was determined as 9.2±2.1%. Also, the “TRPV1 Blockade (%) 50 µM” value at hTRPV1 channels was found to be 13.9±4.8%.

Turning to `C[C@H](c1ccc(F)cc1)N(Cc1cccc(C(=O)O)c1)C(=O)c1cnc2ccccc2c1` [PF-05105679], the IC50 in the test on TRPM8 (Figure 1, literature values) was 181 nM.

As for `O=C(OCc1ccccc1)C(Cc1ccccc1)N1C[C@H](Cc2ccccc2)N(C(=O)OCc2ccccc2)CC1=O` (some centres unmarked) [Compound 13ab], in test [1] (72 h, SRB, unit inferred), the TGI A549 is more than 17800 nM. For the same compound, the GI50 in test [1] (A549, 72 h, SRB) was more than 17800 nM; in test [2] (PSN1, 72 h, SRB), more than 17800 nM; in test [3] (MDA-MB-231, 72 h, SRB) it was more than 17800 nM; in test [4] (HT-29, 72 h, SRB) it was more than 17800 nM. For the same compound, the CC50 in test [1] (A549, 72 h, SRB, unit inferred) is more than 17800 nM; in test [2] (PSN1, 72 h, SRB, unit inferred), more than 17800 nM; in test [3] (setting [5]) it was more than 17800 nM; in test [4] (setting [6]), more than 17800 nM. Also, the TGI PSN1 in test [2] (72 h, SRB, unit inferred) is more than 17800 nM. At rat TRPM8 channel, the “% Blockade 5 µM” value is reported as 48.9 ± 6.2%. Besides, at rat TRPM8 channel, the “% Blockade 50 µM” value was 102.1 ± 7.7%. In addition, in test [3] (72 h, SRB, unit inferred), the TGI MDA-MB-231 was more than 17800 nM. For the same compound, the TGI HT29 in test [4] (72 h, SRB, unit inferred) was more than 17800 nM. Besides, the “TRPV1 Blockade (%) 5 µM” value on hTRPV1 channels was determined as 7.2±3.8%. Further, the “TRPV1 Blockade (%) 50 µM” value at hTRPV1 channels amounted to 8.1±3.4%.
